In ChEMBL document CHEMBL1201862, “PubChem BioAssay data set” (2004):
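48-hour exposure; five concentrations; linearly interpolated endpoints. At the GI50, growth is halved.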 Activity calls are given as the source filed them. Rule as the data show it: active = GI50 up to about 1.1 µM and inactive = higher.

Key:
Test in all cases: NCI anticancer screen, dose series, 48 h
[1] = system: MDA-MB-435
[2] = system: SF-295
[3] = system: SR
[4] = system: SK-MEL-2
[5] = system: LOX IMVI
[6] = system: RPMI-8226
[7] = system: HT-29
[8] = system: SK-MEL-5
[9] = system: HL-60
[10] = system: MCF7
[11] = system: T47D
[12] = system: SNB-75
[13] = system: OVCAR-4
[14] = system: UO-31
[15] = system: MDA-N
[16] = system: TK-10
[17] = system: OVCAR-8
[18] = system: MOLT-4
[19] = system: HCT-15
[20] = system: A549

Compound | GI50 [1] | GI50 [2] | GI50 [3] | GI50 [4] | GI50 [5] | GI50 [6] | GI50 [7] | GI50 [8] | GI50 [9] | GI50 [10] | GI50 [11] | GI50 [12] | GI50 [13] | GI50 [14] | GI50 [15] | GI50 [16] | GI50 [17] | GI50 [18] | GI50 [19] [µM] | GI50 [20]
C[n+]1cccc(/C=C/c2ccc3cccc(O)c3n2)c1 | > 100 µM (inactive) | > 100 µM (inactive) | > 100 µM (inactive) | > 100 µM (inactive) | > 100 µM (inactive) | > 100 µM (inactive) | > 100 µM (inactive) | 37.1 µM (inactive) | 28.1 µM (inactive) | 72.4 µM (inactive) | 83.2 µM (inactive) | > 100 µM (inactive) | > 100 µM (inactive) | > 100 µM (inactive) | > 100 µM (inactive) | > 100 µM (inactive) | 72.3 µM (inactive) | 54.5 µM (inactive) | > 100 | 39.9 µM (inactive)
COc1cccc2c1C1(O)C2CCCCCCCCCC12OCCCO2 (stereo not given) | 24.6 µM (inactive) | 15.1 µM (inactive) | 3 µM (inactive) | > 40.5 µM (inactive) | 10.5 µM (inactive) | 7.29 µM (inactive) | 10.8 µM (inactive) | 21.6 µM (inactive) | 5.66 µM (inactive) | 19.8 µM (inactive) | 23.4 µM (inactive) | > 44.1 µM (inactive) | > 100 µM (inactive) | > 43.3 µM (inactive) | 35.2 µM (inactive) | 49.7 µM (inactive) | > 41.8 µM (inactive) | 6.3 µM (inactive) | 4.93 | > 34.5 µM (inactive)
Cc1nc(C)c(N2CCN(S(=O)(=O)N(Cc3ccccc3)Cc3ccccc3)CC2)c(O)n1 | > 100 µM (inactive) | 18.7 µM (inactive) | > 100 µM (inactive) | 26.7 µM (inactive) | 43.5 µM (inactive) | > 100 µM (inactive) | > 100 µM (inactive) | > 100 µM (inactive) | > 100 µM (inactive) | > 43.6 µM (inactive) | 24.1 µM (inactive) | 5.31 µM (inactive) | 0.836 µM (active) | > 100 µM (inactive) | > 100 µM (inactive) | 33.6 µM (inactive) | 4.78 µM (inactive) | > 100 µM (inactive) | > 100 | > 100 µM (inactive)
Cc1nccn1S(=O)(=O)c1ccc(Br)cc1Br | 19.5 µM (inactive) | 27.7 µM (inactive) | 24.7 µM (inactive) | 22.1 µM (inactive) | 40.9 µM (inactive) | 19.5 µM (inactive) | 29.1 µM (inactive) | 19.9 µM (inactive) | 19.1 µM (inactive) | 37.5 µM (inactive) | 22.6 µM (inactive) | 12.5 µM (inactive) | 29.5 µM (inactive) | 22.3 µM (inactive) | 20.7 µM (inactive) | 38.6 µM (inactive) | 44.4 µM (inactive) | 29 µM (inactive) | 28.4 | 25.9 µM (inactive)
CC(=O)c1cc2c(s1)C(=O)c1scc(C(C)=O)c1C2=O | 0.224 µM (active) | 0.883 µM (active) | 0.107 µM (active) | 0.586 µM (active) | 0.0711 µM (active) | 0.209 µM (active) | 1.81 µM (inactive) | 0.327 µM (active) | – | 0.163 µM (active) | 0.254 µM (active) | 0.598 µM (active) | 0.197 µM (active) | 0.455 µM (active) | 0.198 µM (active) | 3.52 µM (inactive) | 0.23 µM (active) | – | 0.308 | 1.41 µM (inactive)
COC(=O)[C@]12CSC[C@H]1C[C@H](c1ccccc1OC)N2 | > 100 µM (inactive) | > 100 µM (inactive) | > 100 µM (inactive) | > 100 µM (inactive) | > 100 µM (inactive) | > 100 µM (inactive) | – | > 100 µM (inactive) | – | > 100 µM (inactive) | > 100 µM (inactive) | > 100 µM (inactive) | > 100 µM (inactive) | > 100 µM (inactive) | > 100 µM (inactive) | > 100 µM (inactive) | > 100 µM (inactive) | > 100 µM (inactive) | > 100 | > 100 µM (inactive)
c1ccc(C2=NOC(c3ccccc3)N2C23CC4CC(CC(C4)C2)C3)cc1 (stereo not given) | > 10 µM (inactive) | > 10 µM (inactive) | 0.785 µM (active) | > 10 µM (inactive) | > 10 µM (inactive) | > 10 µM (inactive) | > 10 µM (inactive) | > 10 µM (inactive) | > 10 µM (inactive) | 5.82 µM (inactive) | > 10 µM (inactive) | 5.19 µM (inactive) | > 10 µM (inactive) | – | > 10 µM (inactive) | > 10 µM (inactive) | > 10 µM (inactive) | 9.53 µM (inactive) | > 10 | > 10 µM (inactive)
